In PubChem BioAssay AID1963426 (Molecular Pharmacology Branch, DTP, NCI, 2024):

Tested on: 186277-243-T-J2-PDC complex spheroid growth, % test/control
Test: Anticancer human tumor 186277-243-T-J2-PDC patient-derived colon adenocarcinoma cell line growth inhibition [Asc]
Conditions: for IC50: curve of first compound; for viability, T/C: stronger effect = lower value
Description: Multicellular complex tumor spheroid response to apoptosis pathway targeting inhibitors Alrizomadlin, Pelcitoclax, and Dasminapant in combination with a variety of drugs and investigational agents in selected tumor cell lines
The MDM2 inhibitor alrizomadlin, the Bcl-2/Bcl-xL inhibitor pelcitoclax, and the IAPs inhibitor dasminapant were evaluated both individually and in combination with standard of care and investigational anticancer small molecules within a complex spheroid model of solid tumors. . Complex spheroids include a stromal component modeled by human endothelial cells (HUVEC) and fibroblasts modeled by human mesenchymal stem cells (MSCs). The concentration ranges selected for each drug and investigational agent were based upon clinically achievable concentrations if the clinical Cmax of the agent was known.
Compounds. The drugs and investigational agents: alrizomadlin (APG-115; NSC831270), pelcitoclax (APG-1252; NSC835773), dasminapant (APG-1387;NSC834197), TAK-243 (NSC785004), copanlisib (NSC809693), olaparib (NSC753686), talazoparib (NSC767125), cobimetinib (NSC 768068), eltanexor (KPT-8602, NSC 794443), abemaciclib (NSC 768073), sotorasib (NSC818433), adagrasib (NSC 831453), MRTX-1133 (NSC 836407), Iadademestat (ORY1001, NSC 806812), and RMC-4630 (NSC839698), were obtained from the NCI Developmental Therapeutics Program Chemical Repository. The FDA-approved anticancer drug set is available from the Developmental Therapeutics Program at https://dtp.cancer.gov/organization/dscb/obtaining/available plates.htm. […] The stock solutions were prepared in dimethyl sulfoxide (DMSO, Sigma-Aldrich, St. Louis, MO, cat. D2650) at 800-fold the tested concentration and stored at -70 degrees C prior to their use. All drugs and investigational agents were tested over a range starting from a high concentration at or near the clinical Cmax and decreasing in half-log increments. If the clinical Cmax for an agent had not been determined, the highest concentration tested was 10 microM.
The patient-derived cancer (PDC) cell lines include five colon adenocarcinomas: 186277-243-T-J2-PDC, 616215-338-R-J1-PDC, 439559-082-T-J2-PDC, 463943-066-T-J2-PDC, and 519858-162-T-J1-PDC; three pancreatic carcinomas: 323965-272-R-J2-PDC, 521955-158-R6-J3-PDC, and 521955-158-R2-J5-PDC; two uterine sarcomas: 327498-152-R-J2-PDC and 993429-296-R-J1-PDC; two rhabdomyosarcomas: 755483-174-R-J1-PDC and 772245-204-R-J1-PDC; two soft tissue sarcomas: 126254-015-R-J1-PDC and 494315-158-R-J1-PDC; two malignant fibrous histiocytomas: 317291-083-R-J1-PDC and 596521-263-R-J1-PDC; two breast carcinomas: 171881-019-R-J1-PDC and 885512-296-R-J2-PDC; and one ovarian carcinoma: 6556581-035-R-J-PDC were obtained from the NCI PDMR, (https://pdmr.cancer.gov). The established cell lines HSSY-2 synovial sarcoma (RRID:CVCL 8719), SYO-1 synovial sarcoma (RRID:CVCL_7146), MPNST malignant peripheral neural sheath tumor were obtained from the Sloan Kettering Institute. The following established cell lines were purchased from the American Type Culture Collection (ATCC, Manassas, VA), Sor the received from the NCI repository:, PANC-1 pancreatic carcinoma (CRL-1469, RRID:CVCL_0480), OVCAR-5 ovarian carcinoma (RRID:CVCL_1628), OVCAR-8 ovarian carcinoma (RRID:CVCL_1629), , MCF-7 breast carcinoma (CRL-12584, RRID:CVCL_0031), MDA-MB-231 breast carcinoma (CRL-12532, RRID:CVCL_0062), NCI-H1876 small cell lung carcinoma (CRL-5902, RRID:CVCL_1503), NCI-H510A small cell lung carcinoma (HTB-184, RRID:CVCL_1565), NCI-H1417 (CRL-5869, RRID:CVCL_1469), and NCI-H196 small cell lung carcinoma (CRL-5823, RRID:CVCL_1509). Dr. Peter Houghton (Greehey Children's Cancer Research Institute, University of Texas Health Science Center, San Antonio, TX) provided Rh-18 rhabdomyosarcoma (RRID:CVCL_1659). Pooled donor human umbilical vein endothelial cells (HUVEC, Lonza, cat. CC-2519) and human mesenchymal stem cells (hMSC, Lonza, cat. PT-2501) were purchased from Lonza (Walkersville, MD).
Cell Culture. […]
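Also: spheroids exposed to agents for 7 days.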
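For viability, T/C in this document: 100% = DMSO vehicle control wells.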

CCN1CCN(Cc2ccc(Nc3ncc(F)c(-c4cc(F)c5nc(C)n(C(C)C)c5c4)n3)nc2)CC1 + CCN1C(C(=O)NC23CCC(C(=O)O)(CC2)CC3)C(c2cccc(Cl)c2F)C2(C(=O)Nc3cc(Cl)ccc32)C12CCCCC2
IC50 (second compound 0.03 µM): > 1000 nM | IC50 (second compound 0.0949 µM): > 1000 nM | IC50 (second compound 0.3 µM): 704 nM | IC50 (second compound 0.949 µM): 24.6 nM | IC50 (second compound 3 µM): < 3.16 nM | viability, T/C (second compound 0.03 µM, first compound 0.00316 µM): 114% | viability, T/C (second compound 0.03 µM, first compound 0.01 µM): 130% | viability, T/C (second compound 0.03 µM, first compound 0.0316 µM): 112% | viability, T/C (second compound 0.03 µM, first compound 0.1 µM): 97% | viability, T/C (second compound 0.03 µM, first compound 0.316 µM): 99.6% | viability, T/C (second compound 0.03 µM, first compound 1 µM): 85.2% | viability, T/C (second compound 0.0949 µM, first compound 0.00316 µM): 107% | viability, T/C (second compound 0.0949 µM, first compound 0.01 µM): 99.8% | viability, T/C (second compound 0.0949 µM, first compound 0.0316 µM): 89.4% | viability, T/C (second compound 0.0949 µM, first compound 0.1 µM): 75% | viability, T/C (second compound 0.0949 µM, first compound 0.316 µM): 82.3% | viability, T/C (second compound 0.0949 µM, first compound 1 µM): 64.7% | viability, T/C (second compound 0.3 µM, first compound 0.00316 µM): 68.1% | viability, T/C (second compound 0.3 µM, first compound 0.01 µM): 74.7% | viability, T/C (second compound 0.3 µM, first compound 0.0316 µM): 65.8% | viability, T/C (second compound 0.3 µM, first compound 0.1 µM): 61.6% | viability, T/C (second compound 0.3 µM, first compound 0.316 µM): 64.2% | viability, T/C (second compound 0.3 µM, first compound 1 µM): 44.6% | viability, T/C (second compound 0.949 µM, first compound 0.00316 µM): 49.7% | viability, T/C (second compound 0.949 µM, first compound 0.01 µM): 52.6% | viability, T/C (second compound 0.949 µM, first compound 0.0316 µM): 50.4% | viability, T/C (second compound 0.949 µM, first compound 0.1 µM): 44.3% | viability, T/C (second compound 0.949 µM, first compound 0.316 µM): 39.5% | viability, T/C (second compound 0.949 µM, first compound 1 µM): 34.7% | viability, T/C (second compound 3 µM, first compound 0.00316 µM): 29.1% | viability, T/C (second compound 3 µM, first compound 0.01 µM): 31.5% | viability, T/C (second compound 3 µM, first compound 0.0316 µM): 26.8% | viability, T/C (second compound 3 µM, first compound 0.1 µM): 25.7% | viability, T/C (second compound 3 µM, first compound 0.316 µM): 23.2% | viability, T/C (second compound 3 µM, first compound 1 µM): 24.6%
